# Reference: US20250186520A1, “ONCOLYTIC VIRUS COMPOSITIONS AND METHODS FOR THE TREATMENT OF CANCER” (priority 2020, published 2025)
# Key:
# [1] = tested on: human NK cells co-cultured with GBM30 cells; assay: NK cell activation assay (CD69, granzyme B by flow cytometry); format: cell-based; details: purified protein
# Method: (§1) NK cell cytotoxicity was evaluated as previously described (13,64,65). Briefly, U251T2, GBM30, Gli36ΔEGFR, and CT2A-hEGFR cells were used as target cells. The target cells were labeled with ^51Cr for 1 h, followed by incubation with 5 μg/ml or 10 μg/ml of the Cmab-hCCL5 fusion protein or IgG1 isotype control for 30 min. The labeled target cells preincubated with the Cmab-hCCL5 fusion protein or IgG1 were co-cultured with isolated human primary NK cells at different effector:target ratios at 37° C. for 4 h. Release of ^51Cr was measured as counts per minute (cpm) with a MicroBeta(2) microplate radiometric counter (Perkin Elmer, Waltham, MA). […] The cell lysis percentages were calculated using the standard formula: 100×(cpm experimental release−cpm spontaneous release)/(cpm maximal release−cpm spontaneous release). […] The expression of CD69 and granzyme B, NK cell activation markers, were measured after 6-hour co-culture of NK cells and GBM30 cells with 5 μg/ml or 10 μg/ml of Cmab-hCCL5 at a ratio of 1:1 with a flow cytometer after the cells were stained with the anti-CD56 (BD, cat #557919) and anti-CD69 (BD, cat #562883) or anti-granzyme B (BD, cat #563388) antibodies. Following similar procedures, mouse CD69 was measured by an anti-CD69 (BD, cat #564683) antibody, and NK cells were marked by an anti-NKp46 (Biolegend, cat #137618) antibody.
# [2] = tested on: human macrophages co-cultured with GBM30 cells; assay: Quantitative PCR of human macrophage cytokine genes; format: cell-based; details: vs IgG1 isotype control
# Method: For evaluating the effect of Cmab-hCCL5 on mRNA levels of typical human macrophage cytokine genes, human macrophages and GBM30 cells were co-cultured at a ratio of 1:1 for 6 hours with or without 5 μg/ml Cmab-hCCL5. The macrophages were stained with anti-human CD45 antibody and sorted using an Aria Fusion flow cytometer (BD Biosciences). The total RNA was extracted from the sorted macrophages for measuring the mRNA levels of human IL1B, IL6, IL12A, and NOS2 genes with their corresponding primers. 18s rRNA was used as an internal control.
# [3] = tested on: human NK cells, macrophages, CD4^+ T cells, and CD8^+ T cells; assay: Transwell cell migration assay, human immune cells; format: cell-based; details: protein purified from CHO cells; vs IgG1 isotype control
# Method: The migration capability of NK cells, T cells, and macrophages was determined using transwell chambers (Corning). Serum-starved NK cells, T cells or macrophages (10^6/well) were seeded to an upper chamber. Recombinant human (rh) CCL5, recombinant mouse (rm) CCL5, purified Cmab-hCCL5 or Cmab-mCCL5, or the supernatant containing Cmab-hCCL5 or Cmab-mCCL5 secreted from OV-Cmab-hCCL5- or OV-Cmab-mCCL5-infected U251T2 GBM cells was added to the lower chamber. The chambers were incubated at 37° C. in 5% CO2 for 12 h. Cells that migrated to the lower face of the porous membrane in the lower chamber were counted. For the T cells and NK cells, the pore size of the transwell membrane used in this assay was 3 μm as previously described (61,62). For the macrophages, the pore size of the transwell membrane used in this assay was […] as previously described (63).
# GBM30 cells = assay: Flow cytometry-based phagocytosis (ADCP) assay, human macrophages; format: cell-based; details: purified protein; vs IgG1 isotype control or vehicle
# Method: For the phagocytosis assay of primary human macrophages, GBM30 cells stained with CFSE (Thermo Fisher, cat #C34554) were used as target cells. Human macrophages and target cells were co-cultured at a ratio of 1:2 for 6 hours with 5 μg/ml or 10 μg/ml of the Cmab-hCCL5 fusion protein or IgG1 isotype control in a humidified, 5% CO2 incubator at 37° C. in ultra-low-attachment 96-well U-bottom plates (Corning) in serum-free 1640 media (Life Technologies). The co-cultured cells were harvested by centrifuging at 400×g for 5 min at 4° C. and stained with an anti-human CD45 antibody (Biolegend, cat #368516) to identify macrophages. All flow cytometry data were collected using a Fortessa X20 flow cytometer (BD Biosciences). Phagocytosis was measured as the number of CD45^+CFSE^+ macrophages, quantified as a percentage of the total CD45^+ cells.
# Gli36ΔEGFR cells = assay: NK cell cytotoxicity (51Cr release) against TMZ-pretreated cells; format: cell-based, human
# Method: TMZ, which is an imidazotetrazine that is converted to a compound capable of alkylating DNA, interferes with DNA replication and leading to cytotoxicity in proliferating cells, and has been in clinical trials for treating GBM. To detect whether OV-Cmab-CCL5 enhanced TMZ function for treating GBM, the combination therapy with OV-Cmab-CCL5 and TMZ in vivo and in vitro was performed. Gli36ΔEGFR cells were treated with 1 μM TMZ overnight, and the pretreated cells were ^51Cr-labeled and used as target cells. These cells were then incubated with 5 μg/ml Cmab-hCCL5 or vehicle for 30 min. The effector NK cells and target cells were then co-cultured at the ratios of 40:1, 20:1, and 10:1 for 4 hours and assayed for cytotoxicity. […] This function was also detected as induced by the supernatants from OV-Cmab-hCCL5-infected Gli36ΔEGFR cells. Consistent data were collected.
# [4] = tested on: U251T2 (wtEGFR), GBM30, Gli36ΔEGFR (EGFRvIII) GBM cells; assay: NK cell ADCC, 51Cr release assay, EGFR+ targets; format: cell-based, human; details: purified protein; wtEGFR and EGFRvIII tumor cells; vs IgG1 isotype control
# Method: as §1
# [5] = tested on: EGFR (wtEGFR U251T2 and EGFRvIII U87ΔEGFR GBM cells); assay: EGFR binding assay and CCL5 expression assay by flow cytometry (anti-human Fc / anti-human CCL5); details: protein purified from CHO cells
# Method: (§2) U251T2, U87ΔEGFR, and A4780 cells were pre-blocked with 2% BSA and incubated with 1, 5, or 10 μg/ml purified Cmab-hCCL5 or 1, 5, or 10 μg/ml human IgG1 isotype control for 30 min. Murine CT2A-hEGFR cells were pre-blocked with 2% BSA and then incubated with 1, 5, or 10 μg/ml purified Cmab-mCCL5 or 1, 5, or 10 μg/ml human IgG1 isotype control for 30 min. After incubation, all cells were washed twice, and human cell lines were stained with APC-conjugated anti-human Fc (Jackson ImmunoResearch, cat #209-605-098) or APC-conjugated anti-human CCL5 (Biolegend, cat #515506, 149103) antibodies, whereas the murine CT2A-hEGFR cells were stained with APC-conjugated anti-human Fc or PE-conjugated anti-mouse CCL5 antibodies, for 20 min. The stained cells were analyzed using a Fortessa X20 flow cytometer (BD Biosciences).
# [6] = biological target: T1, EGFR (wtEGFR U251T2 and EGFRvIII U87ΔEGFR GBM cells) (Homo sapiens, UniProt P00533); assay: as above
# T1 construct: U251T2 GBM cells, which express wild type EGFR (wtEGFR), U87ΔEGFR GBM cells, which express EGFRvIII; endogenous in cells; host or cells: U251T2 (wtEGFR) and U87ΔEGFR (EGFRvIII) human GBM cells
# Method: as §2
# EGFR^− A2780 cells = assay: EGFR binding assay by flow cytometry on EGFR-negative cells; design: species or system human; details: protein purified from CHO cells; vs IgG1 isotype control
# Method: as §2
molecule,measurement,setting,value
Cmab-hCCL5: bispecific knob-into-hole human IgG1 Fc fusion protein: cetuximab scFv arm and human CCL5 arm,CD69 expression on NK cells,"[1]; 6 hours, vs IgG1 isotype control or GBM30 cells alone",significantly increased the expression of CD69
same,granzyme B expression in NK cells,[1]; relative to controls,increased granzyme B expression
same,cytokine expression in human macrophages (real-time RT-PCR),[2],"significantly increased IL-1B, IL-6, IL-12, and NOS2 expression"
same,"migration of human NK cells, macrophages, CD4^+ and CD8^+ T cells",[3],dose-dependent increase in the migration
same,ADCP against GBM30 cells by human macrophages,GBM30 cells,induced a significantly higher level of ADCP
same,NK cell cytotoxicity,"Gli36ΔEGFR cells; 1 μM TMZ pre-treatment plus 5 μg/ml Cmab-hCCL5, vs either treatment alone",significantly higher degree of NK cell cytotoxicity
same,NK cell ADCC,[4],significantly induced NK cell ADCC
same,CCL5 on cell surface (anti-CCL5 antibody),[5]; EGFR^+ cells,detected CCL5 on EGFR^+ cell surfaces
same,binding to tumor cells (anti-human Fc antibody),[5]; U251T2 (wtEGFR) and U87ΔEGFR (EGFRvIII) cells,selectively bound to tumor cells expressing wtEGFR or EGFRvIII
same,"secretion of cetuximab or CCL5, comparison of Cmab-CCL5 and reverse-order CCL5-Cmab","[6]; FIGS. 14C, 14D: flow cytometry on U251T2 with anti-Fc / anti-hCCL5",no difference
same,binding to surface-expressed EGFR (anti-Fc and anti-CCL5 antibodies),[6]; protein produced by OV-Cmab-hCCL5-infected U251T2 GBM cells,confirmed to bind to surface-expressed EGFR
same,binding to EGFR^− A2780 cells (anti-human Fc antibody),EGFR^− A2780 cells,indistinguishable from that of IgG1 isotype control
"Cn1nnc2c(C(N)=O)ncn2c1=O [TMZ, Temozolomide, reference compound]",NK cell cytotoxicity,Gli36ΔEGFR cells; 1 μM TMZ overnight pre-treatment alone,enhanced NK cell cytotoxicity
